In series [1] the test system is Cynomolgus IPSCs. Put plainly: Hepatocyte differentiation of cynomolgus IPSCs (supplement optimisation).
Experimental: To initialize differentiation, the cells are incubated in a defined medium comprising a Wnt pathway activator.
Generally, media change was performed every day until day 16 and afterwards every second day. Basic medium for differentiation was MT basic medium (DMEM/F12+Glutamax with insulin 7 μg/ml, monothioglycerole 450 μM, 1× Lipid concentrate, BSA 5 mg/ml, sodium selenite 14 ng/ml, 1× non-essential amino acids, heparin 2 mg/ml, transferrin 15 μg/ml, 220 μM ascorbic acid-2-phosphate) or changing to RPMI1640 medium+B27 1:50+non-essential amino acids 1:100 from day 3 of differentiation onwards. On day 1 of differentiation, medium was changed to MT basic medium with 100 ng/ml ActivinA, 10 μM Ly294002 and 1 μM CP21 (Roche GSK3β inhibitor). Then, cells were treated for two days with 100 ng/ml ActivinA, 0.25 μM LDN193189 and 1 μM CP21. At day 4, the medium was changed for three days to the supplements 50 ng/ml ActivinA, 2% knock-out serum replacement (KSR) and 0.5% DMSO. The protocol was modified to a prolonged step of high ActivinA which consisted of 100 ng/ml ActivinA at day 4 of differentiation. To induce hepatic specification, cells were maintained for four days in medium supplemented with 2% KSR, 10 ng/ml BMP4, 10 ng/ml FGF2 or FGF10 and 0.5% DMSO. […] Modification included the addition of 1 μM DAPT between day 11 and day 20. Further modifications included the change of the basis medium for maturation at day 11 to HBM medium+SingleQuots™ (Lonza).
At day 21 of differentiation, efficiency of differentiation was analyzed using two different quantification methods. First, the area covered by ALB positive cells was determined and second the area of cells with typical hepatocyte morphology was evaluated (FIG. 6A and FIG. 6B).
In series [2] the test system is NHP-IPSC-derived hepatocytes. Put plainly: Hepatotoxicity assay (WST-1 cell viability). The class given is cell-based, Cynomolgus monkey. As to conditions: 100 μM, 24 hours, WST-1, MACS-enriched cells in matrigel sandwich. As to the method: NHP-IPSC-derived hepatocytes were enriched using MACS and replated in matrigel sandwich condition as described above. To assess cell response to hepatotoxic compounds cells were treated with 100 μM troglitazone (Sigma) for 24 hours. Cell viability was measured using the WST-1 reagent (Sigma). 10 μl WST-1 reagent were added directly to the medium (1:10 dilution) and cells were incubated for 4 hours at 37° C., 5% CO2. Plates were stirred for 15 seconds and absorbance at 405 nm was measured.
To assess the feasibility of NHP IPSC-derived hepatocytes as model system for drug-induced liver injury, we treated the hepatocytes with Troglitazone, a small molecule with known hepatotoxic effects.
(In general: Tetrazolium assays rely on reduction of a dye to a coloured formazan, in cell work by metabolically active cells.)

Consider `Cn1cc(C2=C(c3cccc(N)c3)C(=O)NC2=O)c2ccccc21` [CP21, 3-(3-Amino-phenyl)-4-(1-methyl-1H-indol-3-yl)-pyrrole-2,5-dione], for which, in series [1] (CP21 1 μM, cell density 45000/cm^2, tested 0 to 2 μM, 30000 to 75000/cm^2), the “efficiency of differentiation of pluripotent stem cells into hepatocytes” value was “most efficient differentiation”. The “cell viability during differentiation” value in series [1] (CP21 concentrations above 2 μM) is “decreased cell viability”.

As to `Cc1c(C)c2c(c(C)c1O)CCC(C)(COc1ccc(CC3SC(=O)NC3=O)cc1)O2` (stereo not shown) [Troglitazone], the “cell viability compared to control cells” value in series [2] was “decrease in cell viability”.

As to “FGF2: fibroblast growth factor used for hepatic specification”, the “ALB positive cells at day 21” value in series [1] (10 ng/ml FGF2 versus FGF10, hepatic specification step) is “more ALB positive cells than FGF10 treatment”.

The values are drawn from patent US11208629B2, “Non-human primate induced pluripotent stem cell derived hepatocytes and uses thereof” (Hoffmann-La Roche Inc., priority 2016, dated 2021).
